Ki and melting point data for 18 compounds are collected here from patent US8637501B2, “Azinone-substituted azepino[b]indole and pyrido-pyrrolo-azepine MCH-1 antagonists, methods of making, and use thereof” (Albany Molecular Research, Inc., priority 2009, dated 2014).

The target of data set [1] is human MCH-1 receptor (Homo sapiens (Human), UniProt Q99705). As to the kind of experiment: Binding Assay for Human Melanin-Concentrating Hormone (MCH-1) Receptor. Conditions: radioligand displacement, membranes from CHO-K1 cells expressing human MCH-1 receptor; Ki from IC50 by Cheng Prusoff equation; read-out: MCH1 Ki. In outline: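 Membranes from CHO-K1 cells stably expressing human MCH-1 incubated 60 min at 25 °C with 1.4 nM tritiated indazolyl-pyridinone radioligand in 50 mM Tris-HCl pH 7.4. Bound counts by filtration and scintillation; IC50 and nH by Hill fit, Ki by Cheng–Prusoff.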
human MCH-1 receptor, sequence (Q99705 whole entry): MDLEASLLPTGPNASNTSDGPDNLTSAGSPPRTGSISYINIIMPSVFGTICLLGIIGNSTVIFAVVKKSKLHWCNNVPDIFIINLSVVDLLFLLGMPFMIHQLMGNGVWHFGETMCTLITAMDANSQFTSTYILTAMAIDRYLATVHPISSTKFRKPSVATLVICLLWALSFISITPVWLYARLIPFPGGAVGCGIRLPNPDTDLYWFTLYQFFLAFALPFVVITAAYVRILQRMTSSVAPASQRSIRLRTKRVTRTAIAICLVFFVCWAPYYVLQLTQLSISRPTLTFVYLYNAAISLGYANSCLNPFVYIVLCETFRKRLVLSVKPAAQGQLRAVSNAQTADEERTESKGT
(In general: In a radioligand displacement assay an active substance lowers the binding of a labelled ligand.)

Each structure is given as a SMILES string. pKi: −log10 of the molar value.

A word on the pKi: it is the negative decadic logarithm of the Ki, by convention in mol/L. A word on the melting point: it is the temperature of the solid-liquid transition. In turn, `Cl.Cn1c2c(c3ccc(-n4ccc(OCc5ncc(Cl)cc5Cl)cc4=O)cc31)CCNCC2` [Example 56, 4-((3,5-Dichloropyridin-2-yl)methoxy)-1-(6-methyl-1,2,3,4,5,6-hexahydroazepino[4,5-b]indol-8-yl)pyridin-2(1H)-one hydrochloride] returned a melting point of 178 to 180 °C. Further, the negative-log Ki (pKi) in data set [1] is 7.57.
Consider `CC(=O)N1CCCc2c(c3ccc(-n4ccc(OCc5ccc(F)cn5)cc4=O)cc3n2C)C1` [Example 61, 1-(2-Acetyl-6-methyl-1,2,3,4,5,6-hexahydroazepino[4,3-b]indol-8-yl)-4-((5fluoropyridin-2-yl)methyoxy)pyridin-2(1H)-one], for which the melting point lay in the range of 78 to 83 °C. Besides, the pKi in data set [1] was 7.24.
For `CC(=O)N1CCCc2c(c3ccc(-n4ccc(-c5ccc(C(F)(F)F)nc5)cc4=O)cc3n2C)C1` [Example 62, 1-(2-Acetyl-6-methyl-1,2,3,4,5,6-hexahydroazepino[4,3-b]indol-8-yl)-4-(6-(trifluoromethyl)pyridin-3-yl)pyridin-2(1H)-one] the same measures were 156 to 162 °C and 7.22.
For `Cl.Cn1c2c(c3ccc(-n4ccc(OCc5ccc(Cl)cn5)cc4=O)cc31)CNCCC2` [Example 63, 4-((5-Chloropyridin-2-yl)methoxy)-1-(6-methyl-1,2,3,4,5,6-hexahydroazepino[4,3-b]indol-8-yl)pyridin-2(1H)-one hydrochloride] the same measures were 260 to 266 °C and 8.30.
For `Cl.Cn1c2c(c3ccc(N4CCN(CCc5ccc(Cl)cc5)CC4=O)cc31)CNCCC2` [Example 64, 4-(4-Chlorophenethyl)-1-(6-methyl-1,2,3,4,5,6-hexahydroazepino[4,3-b]indol-8-yl)piperazin-2-one hydrochloride] the same measures were 252 to 257 °C and 8.34.
`Cl.Cn1c2c(c3ccc(-n4ccc(OCc5ccc(F)cc5F)cc4=O)cc31)CNCCC2` [Example 66, 4-(2,4-Difluorobenzyloxy)-1-(6-methyl-1,2,3,4,5,6-hexahydroazepino[4,3-b]indol-8-yl)pyridin-2(1H)-one hydrochloride] showed a melting point of 272 to 280 °C. In addition, in data set [1], the pKi was 8.14.
For `Cl.Cn1c2c(c3ccc(-n4ccc(OCc5ncc(Cl)cc5Cl)cc4=O)cc31)CNCCC2` [Example 67, 4-((3,5-Dichloropyridin-2-yl)methoxy)-1-(6-methyl-1,2,3,4,5,6-hexahydroazepino[4,3-b]indol-8-yl)pyridin-2(1H)-one dihydrochloride] the same measures were 251 to 256 °C and 7.66.
For `Cl.Cn1c2c(c3ccc(-n4ccc(OCc5ccc(Cl)cc5F)cc4=O)cc31)CNCCC2` [Example 68, 4-(4-Chloro-2-fluorobenzyloxy)-1-(6-methyl-1,2,3,4,5,6-hexahydroazepino[4,3-b]indol-8-yl)pyridin-2(1H)-one hydrochloride] the same measures were 191 to 200 °C and 8.09.
In turn, `Cl.Cn1c2c(c3ccc(-n4ccc(OCc5ccc(F)cn5)cc4=O)cc31)CN(C1CCC1)CCC2` [Example 72, 1-(2-Cyclobutyl-6-methyl-1,2,3,4,5,6-hexahydroazepino[4,3-b]indol-8-yl)-4-((5-fluoropyridin-2-yl)methoxy)pyridin-2(1H)-one hydrochloride] showed a melting point of 260 to 265 °C. In data set [1], the pKi was 8.12.
For `CN1CCCc2c(c3ccc(N4CCN(CCc5ccc(F)cc5)CC4=O)cc3n2C)C1.Cl` [Example 74, 1-(2,6-Dimethyl-1,2,3,4,5,6-hexahydroazepino[4,3-b]indol-8-yl)-4-(4-fluorophenethyl)piperazin-2-one hydrochloride] the same measures were 211 to 220 °C and 8.00.
The compound `Cl.Cn1c2c(c3ccc(N4CCN(CCc5ccc(F)cc5)CC4=O)cc31)CN(C1CCC1)CCC2` [Example 75, 1-(2-Cyclobutyl-6-methyl-1,2,3,4,5,6-hexahydroazepino[4,3-b]indol-8-yl)-4-(4-fluorophenethyl)piperazin-2-one hydrochloride] gave a melting point of 194 to 205 °C. Also, the negative-log Ki (pKi) in data set [1] is 7.85.
Regarding `CCN1CCCc2c(c3ccc(N4CCN(CCc5ccc(F)cc5)CC4=O)cc3n2C)C1.Cl` [Example 76, 1-(2-Ethyl-6-methyl-1,2,3,4,5,6-hexahydroazepino[4,3-b]indol-8-yl)-4-(4-fluorophenethyl)piperazin-2-one hydrochloride], the melting point was 190 to 205 °C. Further, in data set [1], the negative-log Ki (pKi) is 8.01.
For `Cl.Cn1c2c(c3ccc(-n4ccc(OCc5ccccc5)cc4=O)nc31)CCNCC2` [Example 77, 4-(Benzyloxy)-1-(10-methyl-5,6,7,8,9,10-hexahydropyrido[3′,2′:4,5]pyrrolo[2,3-d]azepin-2-yl)pyridin-2(1H)-one hydrochloride] the same measures were 180 to 185 °C (dec.) and 7.96.
Consider `Cl.Cn1c2c(c3ccc(-n4ccc(-c5ccc(C(F)(F)F)nc5)cc4=O)nc31)CCNCC2` [Example 78, 1-(10-Methyl-5,6,7,8,9,10-hexahydropyrido[3′,2′:4,5]pyrrolo[2,3-d]azepin-2-yl)-4-(6-(trifluoromethyl)pyridin-3-yl)pyridin-2(1H)-one hydrochloride], for which the melting point was 320 to 325 °C (dec.). Also, in data set [1], the pKi was 7.54.
For `Cl.Cn1c2c(c3ccc(-n4ccc(-c5ccc(C(F)(F)F)nn5)cc4=O)nc31)CCNCC2` [Example 79, 1-(10-Methyl-5,6,7,8,9,10-hexahydropyrido[3′,2′:4,5]pyrrolo[2,3-d]azepin-2-yl)-4-(6-(trifluoromethyl)pyridazin-3-yl)pyridin-2(1H)-one hydrochloride] the same measures were 300 to 305 °C (dec.) and 6.63.
For `Cl.Cn1c2c(c3ccc(-n4ccc(-c5ccc(C(F)(F)F)cn5)cc4=O)nc31)CCNCC2` [Example 80, 1-(10-Methyl-5,6,7,8,9,10-hexahydropyrido[3′,2′:4,5]pyrrolo[2,3-d]azepin-2-yl)-4-(5-(trifluoromethyl)pyridin-2-yl)pyridin-2(1H)-one hydrochloride] the same measures were 310 to 314 °C (dec.) and 7.16.
`Cl.Cn1c2c(c3ccc(-n4ccc(OCc5ccc(F)cn5)cc4=O)nc31)CCNCC2` [Example 81, 4-((5-Fluoropyridin-2-yl)methoxy)-1-(10-methyl-5,6,7,8,9,10-hexahydropyrido[3′,2′:4,5]pyrrolo[2,3-d]azepin-2-yl)pyridin-2(1H)-one hydrochloride] came in with a melting point of 238 to 240 °C. Moreover, the pKi in data set [1] was 7.48.
For `Cl.Cn1c2c(c3ccc(-n4ncc(OCc5ccc(F)cn5)cc4=O)nc31)CCNCC2` [Example 82, 5-((5-Fluoropyridin-2-yl)methoxy)-2-(10-methyl-5,6,7,8,9,10-hexahydropyrido[3′,2′:4,5]pyrrolo[2,3-d]azepin-2-yl)pyridazin-3(2H)-one hydrochloride] the same measures were 226 to 230 °C (dec.) and 7.28.
